Test results published in PubChem BioAssay AID540351 (The Scripps Research Institute Molecular Screening Center, 2011).
Activity calls are given as the source filed them. No rule for the calls is given here.

Tests used:
Experiment in all cases: off-target receptor, channel and CYP panel, profiling panel, selectivity assay for S1P3 agonist project, biochemical, Ricerca HitProfilingScreen, CYP450 (AID 540351)
[1] = test system: Alpha-2A adrenergic receptor (Homo sapiens) + Histamine H1 receptor (Homo sapiens) + Mu-type opioid receptor (Homo sapiens); settings: Ricerca receptor/enzyme binding panel plus CYP450; at 30 µM; active compounds read high
Sigma 1 = settings: Ricerca receptor/enzyme binding panel plus CYP450, at 30 µM, active compounds read high
[2] = target: Voltage-gated inwardly rectifying potassium channel KCNH2 (Homo sapiens) (UniProt Q12809); settings: Ricerca receptor/enzyme binding panel plus CYP450; Potassium Channel hERG; at 30 µM; active compounds read high
[3] = target: D(1A) dopamine receptor (Homo sapiens) (UniProt P21728); settings: Ricerca receptor/enzyme binding panel plus CYP450; Dopamine D1; at 30 µM; active compounds read high
D(1A) dopamine receptor (Homo sapiens), sequence (P21728 whole entry, looked up): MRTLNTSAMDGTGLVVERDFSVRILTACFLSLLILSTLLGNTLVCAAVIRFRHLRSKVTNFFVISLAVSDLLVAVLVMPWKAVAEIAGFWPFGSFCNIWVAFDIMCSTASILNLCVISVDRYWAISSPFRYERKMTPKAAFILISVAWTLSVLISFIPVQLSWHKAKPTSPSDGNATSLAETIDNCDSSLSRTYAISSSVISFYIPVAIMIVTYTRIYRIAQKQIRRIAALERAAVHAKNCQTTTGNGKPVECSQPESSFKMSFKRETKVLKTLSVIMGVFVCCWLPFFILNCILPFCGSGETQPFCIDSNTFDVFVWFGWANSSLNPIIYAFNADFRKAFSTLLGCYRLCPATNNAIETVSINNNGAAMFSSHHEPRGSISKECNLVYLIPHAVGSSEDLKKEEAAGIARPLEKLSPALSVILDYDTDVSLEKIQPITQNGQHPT

Calcium Channel L-Type = settings: Ricerca receptor/enzyme binding panel plus CYP450, Dihydropyridine, at 30 µM, active compounds read high
CYP450, 2C19 = settings: Ricerca receptor/enzyme binding panel plus CYP450, at 30 µM, active compounds read high
Prostanoid EP4 = settings: Ricerca receptor/enzyme binding panel plus CYP450, at 30 µM, active compounds read high
[4] = target: Cytochrome P450 2C9 (Homo sapiens) (UniProt P11712); settings: Ricerca receptor/enzyme binding panel plus CYP450; CYP450, 2C9; at 30 µM; active compounds read high
Cytochrome P450 2C9 (Homo sapiens), sequence (P11712 whole entry, looked up): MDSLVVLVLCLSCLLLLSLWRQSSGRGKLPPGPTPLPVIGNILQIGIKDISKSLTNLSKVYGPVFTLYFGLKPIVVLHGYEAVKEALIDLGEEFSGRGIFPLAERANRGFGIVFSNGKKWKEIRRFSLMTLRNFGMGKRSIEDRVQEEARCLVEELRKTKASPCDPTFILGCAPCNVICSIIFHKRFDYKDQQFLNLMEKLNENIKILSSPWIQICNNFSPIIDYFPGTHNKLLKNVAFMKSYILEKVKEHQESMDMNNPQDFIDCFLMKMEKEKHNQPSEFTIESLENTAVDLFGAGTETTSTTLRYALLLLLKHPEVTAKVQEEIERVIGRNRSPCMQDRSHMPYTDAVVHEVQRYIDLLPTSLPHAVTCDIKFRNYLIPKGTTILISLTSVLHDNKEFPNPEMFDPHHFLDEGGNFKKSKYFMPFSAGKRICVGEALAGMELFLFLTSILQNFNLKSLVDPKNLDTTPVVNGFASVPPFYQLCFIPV

[5] = target: Cytochrome P450 1A2 (Homo sapiens) (UniProt P05177); settings: Ricerca receptor/enzyme binding panel plus CYP450; CYP450, 1A2; at 30 µM; active compounds read high
Cytochrome P450 1A2 (Homo sapiens), sequence (P05177 whole entry, looked up): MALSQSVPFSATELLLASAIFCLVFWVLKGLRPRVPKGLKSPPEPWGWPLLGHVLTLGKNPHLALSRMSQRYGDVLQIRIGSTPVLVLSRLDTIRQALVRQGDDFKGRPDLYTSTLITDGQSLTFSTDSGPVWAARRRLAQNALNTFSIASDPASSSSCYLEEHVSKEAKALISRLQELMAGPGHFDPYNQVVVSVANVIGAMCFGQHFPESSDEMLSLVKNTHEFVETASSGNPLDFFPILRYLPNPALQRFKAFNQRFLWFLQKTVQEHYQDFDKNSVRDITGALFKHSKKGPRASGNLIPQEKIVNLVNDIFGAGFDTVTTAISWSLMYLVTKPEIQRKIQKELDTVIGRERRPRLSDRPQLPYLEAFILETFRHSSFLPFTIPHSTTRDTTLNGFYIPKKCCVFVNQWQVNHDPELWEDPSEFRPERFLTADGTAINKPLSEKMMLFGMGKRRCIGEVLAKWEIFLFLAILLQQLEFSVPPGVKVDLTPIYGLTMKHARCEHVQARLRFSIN

[6] = target: 5-hydroxytryptamine receptor 2B (Homo sapiens) (UniProt P41595); settings: Ricerca receptor/enzyme binding panel plus CYP450; Serotonin (5-Hydroxytryptamine) 5-HT2B; at 30 µM; active compounds read high
5-hydroxytryptamine receptor 2B (Homo sapiens), sequence (P41595 whole entry, looked up): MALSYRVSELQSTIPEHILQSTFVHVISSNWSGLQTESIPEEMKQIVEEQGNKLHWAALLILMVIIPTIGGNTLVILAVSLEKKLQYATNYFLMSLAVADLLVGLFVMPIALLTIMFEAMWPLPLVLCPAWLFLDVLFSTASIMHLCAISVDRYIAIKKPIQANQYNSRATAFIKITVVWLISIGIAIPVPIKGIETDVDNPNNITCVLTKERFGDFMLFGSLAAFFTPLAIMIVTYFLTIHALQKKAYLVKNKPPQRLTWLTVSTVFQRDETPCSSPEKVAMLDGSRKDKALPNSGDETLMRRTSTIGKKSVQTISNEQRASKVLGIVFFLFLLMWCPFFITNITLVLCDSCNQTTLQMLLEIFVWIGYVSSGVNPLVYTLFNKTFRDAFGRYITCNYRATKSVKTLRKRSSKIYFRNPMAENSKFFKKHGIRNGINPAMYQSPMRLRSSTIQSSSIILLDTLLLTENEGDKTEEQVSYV

Adrenergic alpha1B = settings: Ricerca receptor/enzyme binding panel plus CYP450, at 30 µM, active compounds read high
Cannabinoid CB1 = settings: Ricerca receptor/enzyme binding panel plus CYP450, at 30 µM, active compounds read high
Sodium Channel, Site 2 = settings: Ricerca receptor/enzyme binding panel plus CYP450, at 30 µM, active compounds read high
[7] = target: Cytochrome P450 3A4 (Homo sapiens) (UniProt P08684); settings: Ricerca receptor/enzyme binding panel plus CYP450; CYP450, 3A4; at 30 µM; active compounds read high
Cytochrome P450 3A4 (Homo sapiens), sequence (P08684 whole entry, looked up): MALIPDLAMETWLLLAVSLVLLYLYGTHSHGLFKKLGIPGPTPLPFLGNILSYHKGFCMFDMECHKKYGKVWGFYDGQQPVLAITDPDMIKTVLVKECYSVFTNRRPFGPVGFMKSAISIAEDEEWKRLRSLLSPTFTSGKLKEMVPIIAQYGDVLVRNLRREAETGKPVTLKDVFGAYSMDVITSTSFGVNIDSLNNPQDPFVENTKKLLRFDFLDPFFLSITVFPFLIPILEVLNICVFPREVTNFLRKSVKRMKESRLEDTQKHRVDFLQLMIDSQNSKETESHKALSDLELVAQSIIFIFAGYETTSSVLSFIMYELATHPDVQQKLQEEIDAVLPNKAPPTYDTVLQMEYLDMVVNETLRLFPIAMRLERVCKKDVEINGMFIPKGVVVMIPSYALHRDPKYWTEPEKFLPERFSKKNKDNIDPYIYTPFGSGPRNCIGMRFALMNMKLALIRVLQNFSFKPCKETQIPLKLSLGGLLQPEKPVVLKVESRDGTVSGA

Histamine H1 = settings: Ricerca receptor/enzyme binding panel plus CYP450, at 30 µM, active compounds read high
Glutamate NMDA = settings: Ricerca receptor/enzyme binding panel plus CYP450, Phencyclidine, at 30 µM, active compounds read high
Adrenergic alpha1A = settings: Ricerca receptor/enzyme binding panel plus CYP450, at 30 µM, active compounds read high
[8] = test system: Transporter, Norepinephrine (NET); settings: Ricerca receptor/enzyme binding panel plus CYP450, at 30 µM, active compounds read high
[9] = target: Muscarinic acetylcholine receptor M2 (Homo sapiens) (UniProt P08172); settings: Ricerca receptor/enzyme binding panel plus CYP450, at 30 µM, active compounds read high
Muscarinic acetylcholine receptor M2 (Homo sapiens), sequence (P08172 whole entry, looked up): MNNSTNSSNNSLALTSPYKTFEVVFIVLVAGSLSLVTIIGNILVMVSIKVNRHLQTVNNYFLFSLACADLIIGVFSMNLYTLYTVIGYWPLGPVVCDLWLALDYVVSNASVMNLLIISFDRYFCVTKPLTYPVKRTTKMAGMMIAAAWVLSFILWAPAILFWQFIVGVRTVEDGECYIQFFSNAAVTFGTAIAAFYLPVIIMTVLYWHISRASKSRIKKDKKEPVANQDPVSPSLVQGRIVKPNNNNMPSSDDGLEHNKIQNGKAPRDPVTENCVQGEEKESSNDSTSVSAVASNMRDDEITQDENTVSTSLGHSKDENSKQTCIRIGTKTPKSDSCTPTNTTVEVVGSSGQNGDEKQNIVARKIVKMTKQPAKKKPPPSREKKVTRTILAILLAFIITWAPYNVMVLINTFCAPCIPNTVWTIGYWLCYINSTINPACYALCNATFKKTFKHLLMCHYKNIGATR

Adenosine A1 = settings: Ricerca receptor/enzyme binding panel plus CYP450, at 30 µM, active compounds read high
Adrenergic beta1 = settings: Ricerca receptor/enzyme binding panel plus CYP450, at 30 µM, active compounds read high
[10] = target: Alpha-2A adrenergic receptor (Homo sapiens) (UniProt P08913); settings: Ricerca receptor/enzyme binding panel plus CYP450; Adrenergic alpha2A; at 30 µM; active compounds read high
Alpha-2A adrenergic receptor (Homo sapiens), sequence (P08913 whole entry, looked up): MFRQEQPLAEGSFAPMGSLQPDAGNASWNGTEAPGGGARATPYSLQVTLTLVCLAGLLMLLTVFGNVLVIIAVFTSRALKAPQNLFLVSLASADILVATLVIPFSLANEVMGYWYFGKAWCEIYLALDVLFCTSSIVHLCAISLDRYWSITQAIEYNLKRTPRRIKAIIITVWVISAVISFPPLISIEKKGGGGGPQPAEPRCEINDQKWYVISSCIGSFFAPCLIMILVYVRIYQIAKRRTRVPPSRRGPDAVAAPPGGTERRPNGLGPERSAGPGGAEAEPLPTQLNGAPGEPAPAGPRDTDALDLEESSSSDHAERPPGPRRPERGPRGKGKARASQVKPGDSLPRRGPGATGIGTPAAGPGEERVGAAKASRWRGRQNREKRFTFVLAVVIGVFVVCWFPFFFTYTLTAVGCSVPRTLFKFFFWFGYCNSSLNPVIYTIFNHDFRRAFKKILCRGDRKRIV

Adenosine A2A = settings: Ricerca receptor/enzyme binding panel plus CYP450, at 30 µM, active compounds read high
Nicotinic Acetylcholine = settings: Ricerca receptor/enzyme binding panel plus CYP450, at 30 µM, active compounds read high
Dopamine D2 = settings: Ricerca receptor/enzyme binding panel plus CYP450, at 30 µM, active compounds read high
[11] = target: Beta-2 adrenergic receptor (Homo sapiens) (UniProt P07550); settings: Ricerca receptor/enzyme binding panel plus CYP450; Adrenergic beta2; at 30 µM; active compounds read high
Beta-2 adrenergic receptor (Homo sapiens), sequence (P07550 whole entry, looked up): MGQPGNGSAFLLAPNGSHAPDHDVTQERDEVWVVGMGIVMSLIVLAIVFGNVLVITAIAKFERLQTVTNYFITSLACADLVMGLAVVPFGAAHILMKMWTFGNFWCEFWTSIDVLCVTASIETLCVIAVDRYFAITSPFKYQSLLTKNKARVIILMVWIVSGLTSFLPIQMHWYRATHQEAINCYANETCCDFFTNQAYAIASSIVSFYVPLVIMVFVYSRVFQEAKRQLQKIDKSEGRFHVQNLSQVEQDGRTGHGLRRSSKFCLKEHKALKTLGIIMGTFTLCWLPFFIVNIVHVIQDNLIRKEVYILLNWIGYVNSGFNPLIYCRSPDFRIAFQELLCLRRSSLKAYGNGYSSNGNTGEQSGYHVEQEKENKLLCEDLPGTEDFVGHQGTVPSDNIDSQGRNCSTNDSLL

Opiate mu (OP3, MOP) = settings: Ricerca receptor/enzyme binding panel plus CYP450, at 30 µM, active compounds read high
[12] = target: Cytochrome P450 2D6 (Homo sapiens) (UniProt P10635); settings: Ricerca receptor/enzyme binding panel plus CYP450; CYP450, 2D6; at 30 µM; active compounds read high
Cytochrome P450 2D6 (Homo sapiens), sequence (P10635 whole entry, looked up): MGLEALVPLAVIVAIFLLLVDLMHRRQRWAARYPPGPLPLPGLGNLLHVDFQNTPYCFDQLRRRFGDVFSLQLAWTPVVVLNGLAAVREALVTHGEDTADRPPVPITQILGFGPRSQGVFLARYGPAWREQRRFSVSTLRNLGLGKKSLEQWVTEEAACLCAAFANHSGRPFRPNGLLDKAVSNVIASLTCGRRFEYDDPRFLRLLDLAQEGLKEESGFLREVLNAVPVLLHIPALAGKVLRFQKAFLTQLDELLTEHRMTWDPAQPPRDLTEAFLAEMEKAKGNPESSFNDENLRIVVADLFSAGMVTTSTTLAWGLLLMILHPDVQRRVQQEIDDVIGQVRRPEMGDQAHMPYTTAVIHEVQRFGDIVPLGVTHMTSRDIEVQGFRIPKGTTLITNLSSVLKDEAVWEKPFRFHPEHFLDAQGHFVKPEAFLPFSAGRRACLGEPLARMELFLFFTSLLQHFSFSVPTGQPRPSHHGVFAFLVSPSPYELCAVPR

GABAA = settings: Central, at 30 µM, active compounds read high
[13] = target: Muscarinic acetylcholine receptor M3 (Homo sapiens) (UniProt P20309); settings: Ricerca receptor/enzyme binding panel plus CYP450, at 30 µM, active compounds read high
Muscarinic acetylcholine receptor M3 (Homo sapiens), sequence (P20309 whole entry, looked up): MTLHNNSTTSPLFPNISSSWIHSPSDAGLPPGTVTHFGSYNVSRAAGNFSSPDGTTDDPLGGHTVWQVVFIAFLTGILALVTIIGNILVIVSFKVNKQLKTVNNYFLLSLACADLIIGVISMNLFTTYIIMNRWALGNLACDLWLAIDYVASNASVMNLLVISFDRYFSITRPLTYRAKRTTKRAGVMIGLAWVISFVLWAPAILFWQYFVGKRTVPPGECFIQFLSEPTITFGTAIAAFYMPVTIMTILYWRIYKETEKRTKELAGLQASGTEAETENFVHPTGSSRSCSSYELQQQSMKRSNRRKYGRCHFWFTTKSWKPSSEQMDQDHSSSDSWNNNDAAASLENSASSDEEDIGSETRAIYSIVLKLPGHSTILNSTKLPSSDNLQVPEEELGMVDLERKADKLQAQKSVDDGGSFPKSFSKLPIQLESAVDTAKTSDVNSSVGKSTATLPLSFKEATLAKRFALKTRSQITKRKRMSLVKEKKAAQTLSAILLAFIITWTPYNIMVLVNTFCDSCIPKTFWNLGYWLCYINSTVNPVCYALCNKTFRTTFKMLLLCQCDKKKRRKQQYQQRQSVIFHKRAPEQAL

SMILES: O=C(c1cc(C2CC2)on1)N(C1CCCCC1)C1CCCCC1
- inhibition [1]: -2% (inactive)
- inhibition (Sigma 1): 16% (inactive)
- inhibition [2]: 42% (inactive)
- inhibition [3]: 21% (inactive)
- inhibition (Calcium Channel L-Type): 28% (inactive)
- inhibition (CYP450, 2C19): 68%
- inhibition (Prostanoid EP4): 32% (inactive)
- inhibition [4]: 24% (inactive)
- inhibition [5]: 0% (inactive)
- inhibition [6]: 20% (inactive)
- inhibition (Adrenergic alpha1B): 13% (inactive)
- inhibition (Cannabinoid CB1): 58%
- inhibition (Sodium Channel, Site 2): 59%
- inhibition [7]: 74%
- inhibition (Histamine H1): 51%
- inhibition (Glutamate NMDA): 1% (inactive)
- inhibition (Adrenergic alpha1A): 21% (inactive)
- inhibition [8]: 52%
- inhibition [9]: -1% (inactive)
- inhibition (Adenosine A1): 38% (inactive)
- inhibition (Adrenergic beta1): 45% (inactive)
- inhibition [10]: 34% (inactive)
- inhibition (Adenosine A2A): 5% (inactive)
- inhibition (Nicotinic Acetylcholine): -50%
- inhibition (Dopamine D2): -1% (inactive)
- inhibition [11]: -1% (inactive)
- inhibition (Opiate mu (OP3, MOP)): 38% (inactive)
- inhibition [12]: -26% (inactive)
- inhibition (GABAA; Ricerca receptor/enzyme binding panel plus CYP450, Flunitrazepam): 1% (inactive)
- inhibition (GABAA; Ricerca receptor/enzyme binding panel plus CYP450, Muscimol): -2% (inactive)
- inhibition [13]: 47% (inactive)
